The nature of data set [1]: in vitro. Format: cell-based, murine. The conditions noted are these: mouse, MTT, cells with LPS only = 100 %, read-out: % Cell viability. How it is done: (§1) The RAW 264.7 macrophages cell line was purchased from the American Type Culture Collection (ATCC TIB-71, Rockville, MD, USA) and cultured in a plastic culture flask in DMEM containing L-glutamine supplemented with 10 % FCS and 1 % PSF solution at 37 °C with 5 % CO2. Cells were seeded (10^4 per well) in 96 well-microtitre plate and activated LPS alone (control) or with samples at different concentrations. Quercetin was used as a positive control (Mu et al. [2001]).
(§2) The number of viable cells was determined as previously described by Mosmann ([1983]) on the macrophage cells with few modifications. Briefly, the cells were topped up with 200 µL DMEM after removal of media. 30 µL of 15 mg/mL MTT were added to each well and cells were incubated at 37 °C with 5 % CO2. The medium was aspirated after 2 h, and the formazan salt formed was dissolved using DMSO. The absorbance was read at 570 nm on a BioTek Synergy microplate reader. Cell viability percentage was then calculated with reference to the control (cells with LPS only considered as 100 % viable).

Data set [2] deals with RAW 264.7 macrophages. Put plainly: in vitro. It is filed as cell-based, murine. The note with it: sample at 20 µg/mL; MTT; cells with LPS only = 100 %. The method, then: as §1, §2
Data set [3] concerns the target acetylcholinesterase (Electrophorus electricus, UniProt O42275). The data set is described as follows: biochemical.
Data set [4] concerns NO production in LPS-activated RAW 264.7 macrophages. Put plainly: Nitric oxide inhibitory activity in LPS-activated RAW 264.7 macrophages (Griess reagent). Format: cell-based, murine. The conditions noted are these: for inhibition at 0.5 µg/mL / inhibition at 2 µg/mL / inhibition at 5 µg/mL / inhibition at 20 µg/mL: Mus musculus, relative to LPS control; for inhibition at 0.5 µg/mL: RAW264.7, sample at 0.5 µg/mL; for inhibition at 2 µg/mL: RAW264.7, sample at 2 µg/mL; for inhibition at 5 µg/mL: RAW264.7, sample at 5 µg/mL; for inhibition at 20 µg/mL: RAW264.7, sample at 20 µg/mL; for NO: LPS-activated RAW 264.7. The method, then: Compounds were assayed for their potential to inhibit the NO production in macrophage cells.
as §1
The amount of nitric oxide released was determined by the Griess reagent as reported previously (Dzoyem et al. [2015]).

Structures are written as SMILES. Read-outs that look alike come from different tables or passages of the source. Marks after values point to notes of the source that are not given here.

acetylcholinesterase, sequence (O42275 24-633): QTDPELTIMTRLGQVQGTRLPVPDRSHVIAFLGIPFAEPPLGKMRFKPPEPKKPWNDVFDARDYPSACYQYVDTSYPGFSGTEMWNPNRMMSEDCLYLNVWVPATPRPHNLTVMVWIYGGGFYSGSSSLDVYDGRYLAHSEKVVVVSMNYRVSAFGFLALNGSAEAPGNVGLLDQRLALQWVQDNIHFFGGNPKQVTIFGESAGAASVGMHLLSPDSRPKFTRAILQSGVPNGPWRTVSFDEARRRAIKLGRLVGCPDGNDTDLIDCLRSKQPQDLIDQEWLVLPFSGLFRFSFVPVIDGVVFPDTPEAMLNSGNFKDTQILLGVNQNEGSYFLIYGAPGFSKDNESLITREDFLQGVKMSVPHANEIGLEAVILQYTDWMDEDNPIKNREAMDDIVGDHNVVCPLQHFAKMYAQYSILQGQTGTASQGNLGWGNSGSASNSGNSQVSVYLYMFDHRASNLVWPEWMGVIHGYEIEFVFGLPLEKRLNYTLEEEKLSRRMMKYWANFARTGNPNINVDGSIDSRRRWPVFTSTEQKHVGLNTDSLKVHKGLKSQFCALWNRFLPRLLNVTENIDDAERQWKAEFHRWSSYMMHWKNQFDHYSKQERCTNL

As for `C[C@@H]1CC[C@H]2[C@@H](C)C(=O)O[C@@H]3O[C@@]4(C)CC[C@@H]1[C@]32OO4` [Compound 1, artemisinin], the viability in data set [1] (sample at 0.5 µg/mL) was 110 ± 6.22%; in data set [1] (sample at 2 µg/mL) it was 104 ± 9.66%; in data set [1] (sample at 5 µg/mL), 91.3 ± 2.2%; in data set [1] (sample at 20 µg/mL), 80.9 ± 1.71%. Also, in data set [2], the “% Cell viability” value is on record as “without obvious cytotoxic effect”. Besides, in data set [3], the inhibition at 100 µg/mL was 71.7 ± 7.9%. Moreover, in data set [4], the inhibition at 0.5 µg/mL is 56.3 ± 14.4%. For the same compound, the inhibition at 2 µg/mL in data set [4] was 83.1 ± 9.72%. For the same compound, the inhibition at 5 µg/mL in data set [4] worked out at 89.1 ± 7.05%. For the same compound, in data set [4], the inhibition at 20 µg/mL worked out at 99.2 ± 2.16%. Also, the “NO” value in data set [4] (sample at 0.5 µg/mL) was 3.36 ± 1.10 µM; in data set [4] (sample at 2 µg/mL), 1.30 ± 0.75 µM; in data set [4] (sample at 5 µg/mL), 0.84 ± 0.54 µM; in data set [4] (sample at 20 µg/mL), 0.07 ± 0.17 µM.
With `COc1cc2ccc(=O)oc2cc1O` [Compound 2, scopoletin], the viability in data set [1] (sample at 0.5 µg/mL) worked out at 80.3 ± 8.56%; in data set [1] (sample at 2 µg/mL), 69.9 ± 9.23%; in data set [1] (sample at 5 µg/mL), 88.5 ± 1.19%; in data set [1] (sample at 20 µg/mL) it was 81.6 ± 4.35%. Moreover, in data set [2], the “% Cell viability” value was “without obvious cytotoxic effect”. Besides, the inhibition at 100 µg/mL in data set [3] stood at 56.3 ± 4.92%. Besides, the inhibition at 0.5 µg/mL in data set [4] came out at 65.5 ± 4.41%. In data set [4], the inhibition at 2 µg/mL is 72 ± 4.22%. Further, the inhibition at 5 µg/mL in data set [4] was 77.7 ± 2.09%. In addition, in data set [4], the inhibition at 20 µg/mL turned out to be 98.46 ± 0.79%. Also, the “NO” value was 2.65 ± 0.34 µM in data set [4] (sample at 0.5 µg/mL), 2.15 ± 0.32 µM in data set [4] (sample at 2 µg/mL), 1.71 ± 0.16 µM in data set [4] (sample at 5 µg/mL) and 0.12 ± 0.06 µM in data set [4] (sample at 20 µg/mL).
`COc1cc(-c2oc3cc(OC)c(OC)c(O)c3c(=O)c2OC)ccc1O` [Compound 3, chrysosplenetin]: the viability in data set [1] (sample at 0.5 µg/mL) amounted to 95.6 ± 4.88%; in data set [1] (sample at 2 µg/mL) it was 67.4 ± 3.74%; in data set [1] (sample at 5 µg/mL), 28.5 ± 2.18%; in data set [1] (sample at 20 µg/mL), 15.9 ± 2.37%. In data set [3], the inhibition at 100 µg/mL came out at 80 ± 9.67%. In data set [4], the inhibition at 0.5 µg/mL stood at 37.7 ± 2.88%. In addition, the inhibition at 2 µg/mL in data set [4] is 81.7 ± 1.04%. Further, the inhibition at 5 µg/mL in data set [4] was determined as 98.6 ± 1.67%. The inhibition at 20 µg/mL in data set [4] is over 100%. In addition, the “NO” value in data set [4] (sample at 0.5 µg/mL) was 4.79 ± 0.22 µM; in data set [4] (sample at 2 µg/mL), 1.41 ± 0.08 µM; in data set [4] (sample at 5 µg/mL), 0.10 ± 0.13 µM; in data set [4] (sample at 20 µg/mL), -0.32 ± 0.02 µM.
`COc1ccc(-c2oc3cc(OC)c(OC)c(O)c3c(=O)c2O)cc1O` [Compound 4, eupatin]: the viability stood at 79.3 ± 5.34% in data set [1] (sample at 0.5 µg/mL), 48.5 ± 3.88% in data set [1] (sample at 2 µg/mL), 17.6 ± 1.66% in data set [1] (sample at 5 µg/mL) and 7.49 ± 0.62% in data set [1] (sample at 20 µg/mL). Further, the “% Inhibition (acetylcholinesterase)” value in data set [3] (single concentration of 100 µg/mL (compounds and galantamine)) is listed as 58.22 ± 2.73^b %. For the same compound, in data set [4], the inhibition at 0.5 µg/mL came out at 83.4 ± 1.96%. For the same compound, the inhibition at 2 µg/mL in data set [4] stood at 97.9 ± 1.08%. Besides, the inhibition at 5 µg/mL in data set [4] was determined as 97.8 ± 6.28%. In data set [4], the inhibition at 20 µg/mL is over 100%. Also, the “NO” value in data set [4] (sample at 0.5 µg/mL) was 1.27 ± 0.15 µM; in data set [4] (sample at 2 µg/mL) it was 0.16 ± 0.08 µM; in data set [4] (sample at 5 µg/mL), 0.17 ± 0.48 µM; in data set [4] (sample at 20 µg/mL), -0.20 ± 0.02 µM.
For `O=c1c(O)c(-c2ccc(O)c(O)c2)oc2cc(O)cc(O)c12` [Quercetin, reference compound], the viability in data set [1] (sample at 0.5 µg/mL) amounted to 105 ± 6.13%; in data set [1] (sample at 2 µg/mL), 98.3 ± 5.17%; in data set [1] (sample at 5 µg/mL), 76.2 ± 2.06%; in data set [1] (sample at 20 µg/mL), 23.1 ± 5.37%. In data set [4], the inhibition at 0.5 µg/mL amounted to 34.9 ± 2.76%. In addition, the inhibition at 2 µg/mL in data set [4] came out at 43 ± 3.89%. In data set [4], the inhibition at 5 µg/mL is 85.7 ± 2.34%. In data set [4], the inhibition at 20 µg/mL turned out to be 103 ± 1.08%. For the same compound, the entries for the “NO” value in data set [4] (sample at 0.5 µg/mL), in data set [4] (sample at 2 µg/mL) and in data set [4] (sample at 5 µg/mL) were 5.01 ± 1.67 µM, 4.38 ± 0.30 µM and 1.10 ± 0.18 µM, respectively.

The values above are taken from PMC5017989, “Anti-inflammatory and acetylcholinesterase activity of extract, fractions and five compounds isolated from the leaves and twigs of Artemisia annua growing in Cameroon” (SpringerPlus, 2016).
